# In patent US11970583B2, “Therapeutic dendrimer” (Starpharma Pty Ltd., priority 2018, dated 2024):
# Entries after “also recorded” stand apart in the source; their conditions may differ.
# Columns and labels:
# [1] = test system: progressive metastatic disease; experiment: Phase 1 dose escalation study: treatment response and biomarkers; format: in vivo, human patients
# Experimental: Biomarker, PK and other data were collected from patients enrolled in the study. Patients were dosed every 3 weeks, over 1 hour using an infusion pump. Patients all had progressive metastatic disease. The patient population was heavily pre-treated with a range of chemotherapeutic agents as described in the below table.
# [2] = test system: MDA-MB-231 tumour xenografts
# Experimental: Cabazitaxel was prepared fresh for each dosing day.
# Tumour volumes were determined twice weekly and were expressed as mean tumour volume (±SEM).
# The data represent the mean percent weight change from baseline (Day 1) for each group; bars SEM.
# [3] = 2.5 mg/kg
# DU145 tumour xenografts = experiment: DU145 mouse xenograft prostate cancer model study; format: in vivo, Male SCID mice
# Experimental: Cabazitaxel was prepared fresh for each dosing day. […] Dosing solutions at 4.5 and 5.5 mg/mL were prepared from this working stock immediately prior to injection.
# Male SCID mice (age 7-8) weeks were inoculated subcutaneously in the flank with 3×10^6 DU145 cells in PBS:Matrigel (1:1). Mice were weighed and tumours measured 2-3 times weekly using electronic callipers. […] Treatment groups were saline, Cabazitaxel (9 and 11 mg/kg), SPL-9048 (9 mg/kg) and SPL-9005 (25 mg/kg). […] The experiment was ended on Day 126, or earlier if an ethical endpoint was met. Survival curves were analysed using the Mantel Cox log rank test.
# Tumour volumes were determined 2-3 times weekly and are expressed as mean tumour volume (±SEM).
# Graphs are shown for each group until fewer than 6 animals remained in each group.
# [4] = test system: CAPAN-1 tumour xenografts; experiment: CAPAN-1 mouse xenograft pancreatic cancer model study; format: in vivo, Female NOD-SCID Interleukin-2 receptor gamma chain null mice
# Experimental: Gemcitabine and ABRAXANE® were obtained from the Peter MacCallum Cancer Centre pharmacy, and were dissolved in saline solution immediately prior to dosing.
# Female NOD-SCID Interleukin-2 receptor gamma chain null mice (aged 9 weeks) were inoculated subcutaneously on the flank with 5×10^6 CAPAN-1 cells in PBS:Matrigel (1:1).
# Tumour growth data was analysed in GraphPad Prism for ANOVA followed by Dunnett's post ad-hoc test.
# [5] = Stability in solution (precipitation); format: physicochemical; settings: compared with SPL9049
# [6] = Single-dose toxicokinetic study, intravenous bolus, free (unconjugated) cabazitaxel in plasma; format: in vivo, Sprague Dawley Crl:CD (SD) rats; settings: males; for Cmax free (unconjugated) Cabazitaxel: i.v. bolus; for % JEVTANA ® brand cabazitaxel dose: relative to JEVTANA 2.5 mg/kg
# Experimental: A single-dose toxicokinetic study of SPL-9048 and SPL-9005 was carried out by intravenous bolus injection in rats with a 21-day observation period. The control, 0.9% sodium chloride, was prepared and dispensed on the day of dosing. SPL-9048 and SPL-9005 were prepared at appropriate concentrations to meet dose level requirements. The dosing formulations were prepared and dispensed on each day of dosing and were used within 3 hours of preparation. The required amount of test article was weighed out and dissolved in a suitable volume of normal saline with gentle swirling and the pH was recorded. Cabazitaxel (JEVTANA® brand cabazitaxel) was prepared at appropriate concentration to meet dose level requirements. […] This stock solution was further diluted with normal saline to produce the final dosing concentration within 30 minutes.
# The animals used were male and female Sprague Dawley Crl:CD (SD) rats. The animals were 10 to 14 weeks old and weighed between 327 and 565 g for males and 212 and 316 g for females at initiation of dosing. Animals were acclimated to their designated housing for at least 4 days before the first day of dosing. Animals were assigned to groups by a stratified randomization scheme designed to achieve similar group mean body weights. Males and females were randomised separately. Animals in poor health or at extremes of body weight ranges were not assigned to groups. PMI Nutrition International Certified Rodent Chow No. 5CR4 was provided ad libitum throughout the study except during designated procedures. The same diet in meal form was also provided, as needed. Municipal tap water, after treatment by reverse osmosis and ultraviolet irradiation, was freely available to each animal via an automatic watering system, except during designated procedures. Water bottles were also provided, as required. Animal were socially housed for psychological/environmental enrichment and were provided with items such as a chewing object, except when interrupted by study procedures/activities. Veterinary care was available throughout the course of the study.
# The test and control articles were administered to the appropriate animals at the amounts indicated in the table below via a single intravenous (slow bolus) injection to the tail vein.
# The dose volume for each animal was based on the most recent body weight measurement. The animals were temporarily restrained for dose administration and were not sedated. The doses were given using a syringe with attached needle. The first day of dosing for each group was designated as Day 1. The comparator dosing formulation (JEVTANA® brand Cabazitaxel) and test articles were maintained between 15 and 30° C. during dosing.
# Toxicokinetic parameters were estimated using Phoenix pharmacokinetic software. A non-compartmental approach consistent with the intravenous route of administration was used for parameter estimation.
# [7] = Toxicology study in rats at 1 mg/kg (neutropenia); format: in vivo
# From the text: References to amounts dosed in mg/kg for the dendrimeric compound are to the amounts of Cabazitaxel that may theoretically be released by the dendrimer.
substance,measurement,setting,value
BHALys[Lys]32[α-DGA-Cabazitaxel]32†[ε-PEG˜2100]32‡ [SPL9048],dose at which biomarker response occurs,[1]; FIGS. 8 and 9,≥ 10 mg/m^2
same,CA-125 (FIG. 9),"[1]; ovarian cancer, after two doses at 15 mg/m^2",declining
same,Stable disease,"[1]; patient: digital papillary adenocarcinoma (stage IV), 2 to 15 mg/m^2, 12 cycles",Stable disease > 33 weeks.
same,CA-125 decline,"[1]; patient: ovarian (stage IV), 15 to 20 mg/m^2, 7 cycles, over 15 weeks",CA-125 declining (60%) from 652
same,CA-125 after decline,"[1]; patient: ovarian (stage IV), from 652, over 15 weeks, after one cycle at 15 mg/m^2",to 255 kU/L (over 15 weeks) after
same,CA 19-9 decline,"[1]; patient: pancreatic adenocarcinoma (stage IV), 20 mg/m^2, 3 cycles, after one cycle",CA 19-9 declining (28%) from 177
same,CA 19-9 after decline,"[1]; patient: pancreatic adenocarcinoma (stage IV), 20 mg/m^2, from 177 baseline, after one cycle",baseline to 127 kU/L after one
same,CA 19-9,"[1]; patient: pancreatic adenocarcinoma, 20 mg/m^2, 1 cycle","Stable CA 19-9, abdominal pain"
same,abdominal pain and opioid treatment,"[1]; patient: pancreatic adenocarcinoma, 20 mg/m^2, after one cycle",subsided and cessation of opioid
same,Stable disease,"[1]; patient: prostate (stage III), 5 to 20 mg/m^2, 13 cycles",Stable disease > 35 weeks.
same,PSA after decline,"[1]; patient: prostate (stage III), 5 to 20 mg/m^2, declined from 106 over 12 weeks",PSA declined from 106 to 25 μg/L
same,Stable disease,"[1]; patient: prostate, 20 mg/m^2, 5 cycles",Stable disease > 6 weeks
same,PSA after decline,"[1]; patient: prostate, 20 mg/m^2, 5 cycles, from 262, in 3 weeks after three cycles",86 μg/L (in 3 weeks) after three
same,PSA stability,"[1]; patient: prostate, 5 cycles, at 5 mg/m^2",Preliminary signs of PSA stability
same,PSA (FIG. 8),"[1]; prostate cancer patients, multiple doses at 10 mg/m^2, continuing at 20 mg/m^2",declining
same,"tolerability (body weight, FIG. 4)",[2]; 9 and 10 mg/kg,overall well tolerated
same,"antitumour efficacy (mean tumour volume, FIG. 3)","[2]; 9 and 10 mg/kg i.v. days 1, 8 and 15",complete tumour regression
same,survival,[2]; both doses (9 and 10 mg/kg),significantly extended survival beyond that of Cabazitaxel
same,toxicity overall,[3],Reduced toxicity
same,"antitumour efficacy (mean tumour volume, FIG. 1)","DU145 tumour xenografts; 9 mg/kg i.v. Days 1, 8 and 15, to Day 126",complete tumour regression with no regrowth observed in any of the animals on Day 126
same,"tolerability (body weight, FIG. 2)","DU145 tumour xenografts; male mice, 9 mg/kg i.v. Days 1, 8, 15, 9 mg/kg",overall well tolerated; also recorded: better tolerated than SPL9005
same,max weight loss,"DU145 tumour xenografts; male mice, 9 mg/kg, on Day 20",−10%
same,Tumour Growth inhibition (%),"[4]; Day 37, dosing days 1, 8, 15, Gemcitabine 80 mg/kg i.p., ABRAXANE 40 mg/kg i.v., SPL9048 […] i.v.",107%
same,tumour growth inhibition compared with ABRAXANE,[4]; […] i.v. vs 40 mg/kg i.v.,more effectively than ABRAXANE®
same,"anti-tumour efficacy (mean tumour volume, FIG. 7)","[4]; dosing days 1, 8, 15, study to day 107",complete regression of CAPAN-1 tumours for the duration of the study
same,stability in solution (e.g. with regard to precipitation),[5],increased stability in solution
same,AUC0-t free Cabazitaxel,[6]; 1 mg/kg drug eq.,445.00 ng·h/mL
same,Cmax free (unconjugated) Cabazitaxel,[6]; 1 mg/kg drug eq.,14.13 ng/mL
same,% JEVTANA ® brand cabazitaxel dose,[6]; 1 mg/kg drug eq.,65%
same,AUC0-t free Cabazitaxel,[6]; 2.5 mg/kg drug eq.,1239.99 ng·h/mL
same,Cmax free (unconjugated) Cabazitaxel,[6]; 2.5 mg/kg drug eq.,36.89 ng/mL
same,% JEVTANA ® brand cabazitaxel dose,[6]; 2.5 mg/kg drug eq.,182%
same,rebound after neutropenia at day 14,[7],virtually no rebound
same,"neutropenia (FIG. 6), day 7 in particular",[7]; male and female rats,lesser/no dip in values
